Some test systems named below: Candida krusei DSM 70079; Enterococcus faecalis; Pseudomonas aeruginosa; Enterococcus faecalis VR; Streptococcus sanguinis; Staphylococcus aureus; Escherichia coli UB1005; Klebsiella pneumoniae; Escherichia coli K99; Escherichia coli K88; Acinetobacter baumannii; Escherichia coli.
Holding throughout (assay): ≥ marks a high value that may be exact or a test limit, other limits are often not marked, values filed in µg/mL are converted to µM
Assay [1] relates to Aspergillus flavus PFCC 100.
In assay [2] the test system is Candida glabrata ATCC 90030.
Assay [3] concerns Candida albicans ATCC 10231.
The subject of assay [4] is Aspergillus fumigatus Af293.
Assay [5] concerns Aspergillus niger ATCC 9029.
The subject of assay [6] is Escherichia coli BL21(DE3).
Assay [7] relates to Staphylococcus aureus ATCC 29213.
Assay [8] concerns Escherichia coli ATCC 25922.
In assay [9] the test system is Staphylococcus aureus ATCC 43300.
Assay [10] relates to Escherichia coli ATCC BAA-2523.
Assay [11] deals with Pseudomonas aeruginosa ATCC 27853.
In assay [12] the test system is Escherichia coli CIP 54.8T.
Assay [13] relates to Vibrio vulnificus CIP 109783.
The test system of assay [14] is Listeria monocytogenes CIP 110871.
The subject of assay [15] is Staphylococcus aureus CIP 53.156.
For assay [16], the system named is Enterococcus faecalis CIP 76.117.
Assay [17] deals with Aeromonas salmonicida CIP 103209T.
Assay [18] deals with Salmonella enterica subsp. enterica serovar Pullorum C79-13.
In assay [19] the test system is Salmonella enterica subsp. enterica serovar Typhimurium ATCC 14028.
For assay [20], the system named is Pseudomonas aeruginosa CICC 21630.
The test system of assay [21] is Pseudomonas aeruginosa PAO1.
Assay [22] concerns Salmonella enterica subsp. enterica serovar Typhimurium C77-31.
Assay [23] relates to Pseudomonas aeruginosa CICC 21625.

Converted amounts (≈) assume the structure as drawn. “And” between values parts separate entries of the source, which are not always exact repeats. Equal values may be shown once.

The term MIC denotes the lowest concentration found to suppress growth.

With `CC[C@H](C)[C@H](NC(=O)CNC(=O)[C@@H](NC(=O)[C@H](Cc1ccccc1)NC(=O)[C@H](C)NC(=O)[C@H](CCCCN)NC(=O)[C@@H](NC(=O)[C@H](CO)NC(=O)[C@@H](N)CC(C)C)C(C)C)[C@@H](C)O)C(=O)N[C@@H](CCC(N)=O)C(=O)N[C@@H](CC(C)C)C(=O)N[C@@H](CCCN=C(N)N)C(=O)NCC(=O)N[C@H](C(=O)N[C@@H](CS)C(=O)NCC(=O)N[C@H](C(=O)N[C@@H](CCC(=O)O)C(=O)N[C@H](C(=O)N[C@@H](CCCCN)C(=O)N[C@@H](C)C(=O)N[C@@H](CCCN=C(N)N)C(=O)NCC(=O)O)C(C)C)[C@@H](C)CC)C(C)C` [LSVKAFTGIQLRGVCGIEVKARG], the MIC in [1] came to 13.3 µM (≈ 32 µg/mL); against Candida krusei DSM 70079, 6.66 µM (≈ 16 µg/mL); in assay [2], 3.33 µM (≈ 8 µg/mL); in [3] it was 6.66 µM (≈ 16 µg/mL); in [4] it was 6.66 µM (≈ 16 µg/mL); in assay [5] it was 6.66 µM (≈ 16 µg/mL).

Take `CC[C@H](C)[C@H](NC(=O)[C@H](CC(C)C)NC(=O)[C@H](CCCN=C(N)N)NC(=O)[C@@H](NC(=O)[C@H](CC(C)C)NC(=O)[C@H](CCCN=C(N)N)NC(=O)[C@@H](N)CCCN=C(N)N)[C@@H](C)CC)C(=O)N[C@@H](CC(C)C)C(=O)N[C@@H](CCCN=C(N)N)C(=O)N[C@@H](CC(C)C)C(=O)N[C@@H](CC(C)C)C(=O)N[C@@H](CCCN=C(N)N)C(N)=O` [RRLIRLILRLLR]: the MIC in assay [6] was 4 µM and 8 µM.

As to `CC(C)C[C@H](NC(=O)[C@@H](N)CCC(N)=O)C(=O)NCC(=O)N[C@@H](CCCN=C(N)N)C(=O)N[C@@H](CCCN=C(N)N)C(=O)N[C@@H](CCCN=C(N)N)C(=O)N[C@@H](Cc1cnc[nH]1)C(=O)N[C@@H](CCCN=C(N)N)C(=O)N[C@@H](CCCN=C(N)N)C(=O)N[C@@H](CCCN=C(N)N)C(=O)N1CCC[C@H]1C(=O)N[C@@H](CO)C(=O)N[C@@H](CCCN=C(N)N)C(=O)N[C@@H](CCCN=C(N)N)C(=O)N[C@@H](CCCN=C(N)N)C(=O)N[C@@H](CCCN=C(N)N)C(=O)N[C@@H](Cc1cnc[nH]1)C(=O)N[C@@H](Cc1c[nH]c2ccccc12)C(=O)O` [QLGRRRHRRRPSRRRRHW], the MIC is 32 µM (≈ 80.7 µg/mL) in assay [7]; 64 µM (≈ 161 µg/mL) in assay [8]; at least 32 µM with Enterococcus faecalis; 128 µM (≈ 323 µg/mL) against Pseudomonas aeruginosa; 16 µM (≈ 40.4 µg/mL) in assay [9]; 16 µM (≈ 40.4 µg/mL) against Enterococcus faecalis VR. In addition, the MIC was at least 128 µM in assay [10] and above 128 µM in assay [11].

Consider `NC(=O)[C@H](Cc1ccccc1)NC(=O)[C@H](Cc1ccccc1)NC(=O)[C@H](Cc1ccccc1)NC(=O)[C@H](Cc1ccccc1)NC(=O)[C@@H](N)Cc1ccccc1` [FFFFF], for which the MIC against Streptococcus sanguinis was at least 36.3 µM; against Staphylococcus aureus, 33.8 µM (≈ 25.5 µg/mL).

For `CC[C@H](C)[C@H](NC(=O)[C@H](CC(C)C)NC(=O)[C@H](CC(=O)O)NC(=O)[C@H](Cc1cnc[nH]1)NC(=O)[C@@H](NC(=O)[C@H](CO)NC(=O)[C@H](CCCCN)NC(=O)CNC(=O)[C@@H](NC(=O)[C@H](Cc1cnc[nH]1)NC(=O)[C@H](Cc1ccccc1)NC(=O)[C@H](CC(C)C)NC(=O)CNC(=O)CNC(=O)[C@@H](NC(=O)[C@@H](NC(=O)[C@H](Cc1cnc[nH]1)NC(=O)[C@H](Cc1cnc[nH]1)NC(=O)[C@@H](NC(=O)[C@@H](N)Cc1ccccc1)[C@@H](C)CC)[C@@H](C)CC)[C@@H](C)CC)C(C)C)[C@@H](C)CC)C(=O)N[C@@H](CCCN=C(N)N)C(=O)O` [FIHHIIGGLFHVGKSIHDLIR], the MIC in assay [12] was 15.8 µM (≈ 38.1 µg/mL); in assay [13], at least 35.4 µM; in assay [14], 15.8 µM (≈ 38.1 µg/mL); in [15], 7.07 µM (≈ 17 µg/mL); in [16], 15.8 µM (≈ 38.1 µg/mL); in [17], 7.07 µM (≈ 17 µg/mL).

Turning to `CC(C)[C@H](N)C(=O)N[C@@H](CCCCN)C(=O)N1CCC[C@H]1C(=O)N[C@H](C(=O)N[C@H](C(=O)N[C@@H](CCCCN)C(=O)N1CCC[C@H]1C(=O)N[C@H](C(=O)N[C@H](C(=O)N[C@@H](CCCCN)C(=O)N1CCC[C@H]1C(=O)N[C@H](C(=O)N[C@H](C(=O)N[C@@H](CCCCN)C(=O)N1CCC[C@H]1C(=O)N[C@H](C(=O)N[C@H](C(=O)N[C@@H](CCCCN)C(=O)N1CCC[C@H]1C(=O)N[C@H](C(=O)N[C@H](C(=O)N[C@@H](CCCCN)C(=O)N1CCC[C@H]1C(=O)N[C@H](C(N)=O)C(C)C)C(C)C)C(C)C)C(C)C)C(C)C)C(C)C)C(C)C)C(C)C)C(C)C)C(C)C)C(C)C` [VKPVVKPVVKPVVKPVVKPVVKPV], the MIC was at least 64 µM in the assay with Escherichia coli UB1005; above 64 µM in the assay on Klebsiella pneumoniae; at least 64 µM in assay [18]; above 64 µM in assay [8]; above 64 µM in assay [19]; above 64 µM with Pseudomonas aeruginosa. For the same compound, the MIC with Escherichia coli K99 is at least 64 µM; against Escherichia coli K88, at least 64 µM; in the assay on Acinetobacter baumannii, at least 64 µM; in assay [20], at least 64 µM; in the assay with Escherichia coli it was above 64 µM; in assay [21] it was above 64 µM. Also, the MIC in [22] was at least 64 µM; in assay [23] it was at least 64 µM; in assay [11], above 64 µM.

These data come from DBAASP.
